Measurements taken from PubChem BioAssay (NCI).
Where “and” joins values, the source holds several entries; their conditions need not be identical. Identical values can stand only once.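 Exposure lasted 48 hours, with cells grown in 96-well plates and compounds tested at five concentrations. GI50 is the concentration that inhibits growth by half. At the TGI there is no net growth.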

Assays:
Assay in all cases: growth of human tumour cells (NCI), 48 h; in the data active means GI50 below about 0.43 µM; inactive means the rest
[1] = system: SK-MEL-28 melanoma
[2] = system: NCI-H226 lung
[3] = system: HOP-62 NSCLC
[4] = system: OVCAR-3 ovarian
[5] = system: MALME-3M melanoma
[6] = system: OVCAR-5 ovarian
[7] = system: M14 melanoma
[8] = system: IGROV1 ovarian
[9] = system: NCI-H23 lung
[10] = system: SR leukemia

CCCC(C)C[C@@H](C)CC(C)/C=C(\C)c1oc(=O)c(C)c(O)c1C (some centres undefined) (tested in a mixture with another compound)
30.4 µM: TGI [2]
36.5 µM: TGI [3]
18.9 µM: TGI [4]
29.1 µM: TGI [7]
17.5 µM: TGI [6]
28.2 µM: TGI [1]
9.17 µM: TGI [5]

CCCCc1ccc(-n2c3nc(=O)n(C)c(=O)c-3nc3ccccc32)cc1
32.6 µM: TGI [3]
19.7 µM: TGI [5]
21.7 µM: TGI [7]
26.6 µM: TGI [2]
10.1 µM: TGI [4]
8.19 µM: TGI [9]
32 µM: TGI [6]
33.7 µM: TGI [8]

CN(C)CC/C(=N\Nc1ccccc1)c1ccccc1
30.9 µM: TGI [6]
25.6 µM: TGI [5]
27.7 µM: TGI [4]
> 100 µM: TGI [8] | TGI [9] | TGI [10]
4.73 µM: TGI [7]
31 µM: TGI [3]

COc1ccc2c(c1)OC1=C(C(=O)OC1)C2c1cc(OC)c(OC)c(OC)c1 (centres undefined)
1.14 µM: TGI [4]
inactive: GI50 [1] 0.667 µM | GI50 [2] 0.441 µM | GI50 [3] 0.545 µM | GI50 [5] 0.468 µM | GI50 [8] 3.18 µM | GI50 [9] 0.609 µM | GI50 [6] 4.3 µM | GI50 [7] 0.471 µM
5.99 µM: TGI [2]
87.6 µM: TGI [5]
> 100 µM: TGI [1] | TGI [3] | TGI [8] | TGI [9] | TGI [6] | TGI [7]
active: GI50 [4] 0.313 µM

Cc1ccc(-c2nc(N)nc3c2nnn3Cc2cccc(CO[C@H]3CCOC3)n2)o1
> 100 µM: TGI [1] | TGI [2] | TGI [3] | TGI [4] | TGI [5] | TGI [8] | TGI [9] | TGI [6] | TGI [7]
inactive: GI50 [1] > 100 µM | GI50 [2] > 100 µM | GI50 [3] > 100 µM | GI50 [4] > 100 µM | GI50 [5] > 100 µM | GI50 [8] > 100 µM | GI50 [9] > 100 µM | GI50 [6] > 100 µM | GI50 [7] > 100 µM

O=C1c2ccccc2C2(O)NC(=S)N(c3ccccc3)C12O (centres undefined)
> 100 µM: TGI [1] | TGI [4] | TGI [5] | TGI [8] | TGI [9] | TGI [6] | TGI [10] | TGI [7]

O=C1c2cc([N+](=O)[O-])ccc2-c2cccc(F)c21
> 100 µM: TGI [1] | TGI [2] | TGI [3] | TGI [4] | TGI [8] | TGI [9] | TGI [6] | TGI [10] | TGI [7]

NC1CCCCC1N.O=S(=O)([O-])CCCN1CCOCC1.O=S(=O)([O-])CCCN1CCOCC1.[Pt+4]
> 100 µM: TGI [2] | TGI [3] | TGI [4] | TGI [8] | TGI [6] | TGI [7]
22.5 µM: TGI [5]
> 92.2 µM: TGI [9]
inactive: GI50 [1] 5.32 µM | GI50 [2] 22.5 µM | GI50 [3] > 100 µM | GI50 [4] 19.3 µM | GI50 [5] 5.23 µM | GI50 [8] 18.1 µM | GI50 [9] 18.2 µM | GI50 [6] 26 µM | GI50 [7] 14.4 µM
48.3 µM: TGI [1]

COc1ccc2cc3[n+](cc2c1OC)CCc1cc(O)c(O)cc1-3
> 100 µM: TGI [2] | TGI [3] | TGI [4] | TGI [5] | TGI [8] | TGI [9] | TGI [6] | TGI [7]

C1CCN(C2OC3C(COC3N3CCCCC3)OC2OC2CCO[C@@H]2N2CCCCC2)CC1 (some centres undefined)
83.2 µM: TGI [5]
78.6 µM: TGI [9]
89.3 µM: TGI [4]
54.1 µM: TGI [2]
> 100 µM: TGI [1] | TGI [3] | TGI [8] | TGI [6] | TGI [7]

O=c1[nH]c2c3ccccc3ccc2c2cc3c(cc12)OCO3
> 100 µM: TGI [1] | TGI [2] | TGI [3] | TGI [4] | TGI [5] | TGI [8] | TGI [9] | TGI [6] | TGI [7]

O=C(O)CC12C3C4C5C3C1C5C42 (centres undefined)
> 100 µM: TGI [1] | TGI [3] | TGI [4] | TGI [5] | TGI [8] | TGI [9] | TGI [6] | TGI [7]

Cc1ccc(NC(=O)CCC/C(CC(=O)c2ccc(Br)cc2)=N/NC(=O)CC#N)cc1
> 100 µM: TGI [1] | TGI [2] | TGI [3] | TGI [4] | TGI [5] | TGI [8] | TGI [9] | TGI [6] | TGI [7]

CCn1c(O)c(C=N)c(=O)n(CC)c1=O
> 100 µM: TGI [1] | TGI [2] | TGI [3] | TGI [4] | TGI [5] | TGI [8] | TGI [9] | TGI [6] | TGI [7]

COC1OC(C)C(O)CC1OS(=O)(=O)c1ccc(C)cc1 (centres undefined)
> 100 µM: TGI [1] | TGI [2] | TGI [4] | TGI [5] | TGI [8] | TGI [9] | TGI [6] | TGI [7]

COC(=O)C(=O)C(C#N)c1ccc(CC#N)cc1 (centres undefined)
> 100 µM: TGI [1] | TGI [2] | TGI [4] | TGI [5] | TGI [8] | TGI [9] | TGI [10] | TGI [7]

Cc1nc2cc(N)c(F)cc2[nH]1
> 100 µM: TGI [1] | TGI [2] | TGI [3] | TGI [5] | TGI [8] | TGI [9] | TGI [6] | TGI [10]

O=P([O-])(O)OP(=O)([O-])O.[NH-][C@@H]1CCCC[C@H]1[NH-].[Pt+4]
> 100 µM and 29.4 µM: TGI [4]
> 100 µM and 91.1 µM: TGI [9]
inactive: GI50 [1] 14.1 µM and 5.74 µM | GI50 [2] 32.3 µM and 5.29 µM | GI50 [3] > 95.5 µM and 13.2 µM | GI50 [4] 23.8 µM and 11.2 µM | GI50 [5] 11.7 µM and 2.98 µM | GI50 [8] 12.3 µM and 4.8 µM | GI50 [9] 18.4 µM and 12.3 µM | GI50 [6] > 52.1 µM and 14.5 µM | GI50 [7] 38.9 µM and 14.8 µM
> 100 µM: TGI [3] | TGI [8] | TGI [6] | TGI [7]
> 100 µM and 29 µM: TGI [5]
> 100 µM and 61.8 µM: TGI [1]
> 100 µM and 33.6 µM: TGI [2]

NC(=S)N/N=C(\C(=O)Nc1cccc([N+](=O)[O-])c1)c1nc2ccc([N+](=O)[O-])cc2[nH]c1=O
> 100 µM: TGI [1] | TGI [2] | TGI [3] | TGI [5] | TGI [8] | TGI [9] | TGI [6] | TGI [7]

c1cc(OCCN2CCCCC2)ccc1CNc1ccc2nc(CCC3CCCCC3)[nH]c2c1
6.59 µM: TGI [8]
3.4 µM: TGI [3]
4.29 µM: TGI [2]
4.91 µM: TGI [9]
5.64 µM: TGI [6]
inactive: GI50 [2] 1.83 µM | GI50 [3] 1.79 µM | GI50 [4] 1.73 µM | GI50 [5] 1.62 µM | GI50 [8] 2.32 µM | GI50 [9] 2.03 µM | GI50 [6] 2.04 µM | GI50 [10] 0.617 µM | GI50 [7] 1.72 µM
3.01 µM: TGI [10]
3.14 µM: TGI [5]
3.5 µM: TGI [4]
3.38 µM: TGI [7]
